US5200415A, “Pyrazolo[1,5-a]pyridine-3-carboxylic acid derivatives and their pharmaceutical use” (Asahi Kasei Kogyo Kabushiki Kaisha, priority 1990, dated 1993)
Where two headings read alike, the source gives them in different places.

Experiments:
[1] = target: T1, 5-HT3 receptor (Rattus norvegicus, UniProt P35563); assay: 5-HT3 receptor binding experiment (3H-quipazine binding assay, rat cerebral cortical membrane fraction); conditions: for inhibition at 0.01 µM / inhibition at 0.001 µM: read-out: Binding inhibitory rate
T1 sequence (P35563 24-483): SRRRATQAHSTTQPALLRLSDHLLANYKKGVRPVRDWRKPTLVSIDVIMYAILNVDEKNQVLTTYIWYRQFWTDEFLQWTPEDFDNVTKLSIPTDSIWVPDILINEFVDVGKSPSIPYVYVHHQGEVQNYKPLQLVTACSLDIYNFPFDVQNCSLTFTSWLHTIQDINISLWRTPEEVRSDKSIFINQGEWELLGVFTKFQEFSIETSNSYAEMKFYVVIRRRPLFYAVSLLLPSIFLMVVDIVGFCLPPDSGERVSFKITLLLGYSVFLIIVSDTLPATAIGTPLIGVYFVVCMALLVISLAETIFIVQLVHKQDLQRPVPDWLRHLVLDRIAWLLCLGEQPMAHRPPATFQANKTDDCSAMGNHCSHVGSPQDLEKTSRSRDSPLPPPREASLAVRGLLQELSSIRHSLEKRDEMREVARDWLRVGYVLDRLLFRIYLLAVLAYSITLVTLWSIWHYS

[2] = system: female beagles; assay: Antiemetic effects against cisplatin-induced vomiting; format: in vivo, female beagles (dog); conditions: for Number of vomits / Latency of the first vomit: test compound 0.1 mg/kg i.v. 75 minutes after cisplatin 3 mg/kg i.v.; for Number of vomits: 4 hours observation; for Vomiting after cisplatin (result in words): two beagles, test compound 0.1 mg/kg i.v., cisplatin 3 mg/kg i.v.
Excerpt: Using four 9-13 month-old female beagles having a body weight of 7.5-9.6 Kg (furnished by Toyo Research Animal Inc.), the antiemetic effects of certain compounds of the present invention were investigated.
As test compounds, the compounds obtained in Examples 8 and 9, respectively, were individually weighed and dissolved in 0.01N hydrochloric acid. The resultant solutions were neutralized to about pH 7 with 0.01N NaOH to provide aqueous solutions for administration. Cisplatin ("Briplatin Injection", product of Bristol-Myers Co.) was used as an emetic.
To see the emetic effects of cisplatin to each animal, vomiting after the administration of cisplatin was first observed (control group). Next, seven weeks later, each group consisting of two beagles was intravenously administered with 0.1 mg/kg (0.2 ml/kg) of the compound of Example 8 or 9 upon an elapsed time of 75 minutes after the administration of cisplatin, and the group administered with the compound of Example 8 and the group administered with the compound of Example 9 were both observed for vomit. Cisplatin was intravenously administered at the dosage of 3 mg/kg (in the volume of 6 ml/kg) and the administration rate of 10 ml/min.
The laboratory animals were fasted for about 24 hours prior to administration of cisplatin and, one hour after the administration of cisplatin, were fed. Vomit was determined depending on whether vomitus was discharged out of the mouth. With respect to the number of vomits and their latency, observation was continued for 4 hours after the administration of cisplatin.
Based on the observation, the latency of the first vomit of and the number of vomits of each laboratory animal after the administration of cisplatin are shown in Table 3-A and Table 3-B.

O=C(O)c1cnn2ccccc12 [Control* 1, Pyrazolo[1,5a]pyridine3-carboxylic acid, reference compound]
IC50 [1]: > 10000 nM

Cc1nn2ccccc2c1C(=O)O [Control* 2, 2Methylpyrazolo[1,5a]pyridine3-carboxylic acid, reference compound]
IC50 [1]: > 10000 nM

Cc1cccn2ncc(C(=O)O)c12 [Control* 3, 4Methylpyrazolo[1,5a]pyridine3-carboxylic acid, reference compound]
IC50 [1]: > 10000 nM

Cc1ccn2ncc(C(=O)O)c2c1 [Control* 4, 5Methylpyrazolo[1,5a]pyridine3-carboxylic acid, reference compound]
IC50 [1]: > 10000 nM

Cc1ccc2c(C(=O)O)cnn2c1 [Control* 5, 6Methylpyrazolo[1,5a]pyridine3-carboxylic acid, reference compound]
IC50 [1]: > 10000 nM

Cc1cccc2c(C(=O)O)cnn12 [Control* 6, 7Methylpyrazolo[1,5a]pyridine3-carboxylic acid, reference compound]
IC50 [1]: > 10000 nM

Cc1nn2c(C)cccc2c1C(=O)O [Control* 7, 2,7Dimethylpyrazolo[1,5a]pyridine3-carboxylic acid, reference compound]
IC50 [1]: > 10000 nM

O=C(NC1CN2CCC1CC2)c1cnn2ccccc12 (stereo not drawn) [Example 1, N-(1-azabicyclo[2.2.2]oct-3-yl)-3-pyrazolo[1,5-a]pyridinecarboxamide]
IC50 [1]: 41.1 nM | inhibition at 0.01 µM [1]: 50%

Cc1ccn2ncc(C(=O)NC3CN4CCC3CC4)c2c1 (stereo not drawn) [Example 2, 5-methyl-N-(1-azabicyclo[2.2.2]oct-3-yl)-3-pyrazolo[1,5-a]pyridinecarboxamide]
IC50 [1]: 43.2 nM | inhibition at 0.01 µM [1]: 31%

Cc1cccc2c(C(=O)NC3CN4CCC3CC4)cnn12 (stereo not drawn) [Example 4, 7-methyl-N-(1-azabicyclo[2.2.2]oct-3-yl)-3-pyrazolo[1,5-a]pyridinecarboxamide]
IC50 [1]: 7.2 nM | inhibition at 0.01 µM [1]: 82%

Cc1nn2ccccc2c1C(=O)NC1CN2CCC1CC2 (stereo not drawn) [Example 5, 2-methyl-N-(1-azabicyclo[2.2.2]oct-3-yl)-3-pyrazolo[1,5-a]pyridinecarboxamide]
IC50 [1]: 18.9 nM | inhibition at 0.01 µM [1]: 50%

CN1[C@@H]2CC[C@H]1C[C@@H](OC(=O)c1cnn3ccccc13)C2 [Example 6, endo-8-methyl-8-azabicyclo[3.2.1]-oct-3-yl pyrazolo[1,5-a]pyridine-3-carboxylate]
IC50 [1]: 16.5 nM | inhibition at 0.001 µM [1]: 9% | inhibition at 0.01 µM [1]: 37%

Cc1cccc2c(C(=O)O[C@H]3C[C@H]4CC[C@@H](C3)N4C)cnn12 [Example 7, endo-8-methyl-8-azabicyclo[3.2.1]-oct-3-yl 7-methylpyrazolo[1,5-a]pyridine-3-carboxylate]
IC50 [1]: 1 nM | inhibition at 0.001 µM [1]: 43% | inhibition at 0.01 µM [1]: 77%

Cc1cccc2c(C(=O)N[C@H]3C[C@H]4CC[C@@H](C3)N4C)cnn12 [Example 8, endo-8-methyl-8-azabicyclo[3.2.1]-oct-3-yl 7-methyl-pyrazolo[1,5-a]pyridine-3-carboxamide]
Number of vomits ([2]; Dog No. 1): 0 times | Number of vomits ([2]; Dog No. 2): 0 times | Vomiting after cisplatin (result in words) [2]: No vomit | IC50 [1]: 19.1 nM

Cc1cccc2c(C(=O)N[C@H]3C[C@H]4CCC[C@@H](C3)N4C)cnn12 [Example 9, endo-9-methyl-9-azabicyclo[3.3.1]-non-3-yl 7-methyl-pyrazolo[1,5-a]pyridine-3-carboxamide]
Latency of the first vomit ([2]; Dog No. 3): 132 min | Number of vomits ([2]; Dog No. 3): 12 times | Latency of the first vomit ([2]; Dog No. 4): 173 min | Vomiting after cisplatin (result in words) [2]: number of vomits therefore decreased in one case | IC50 ([1]; read-out: IC50 value): 53.7 nM

Cc1cccc2c(C(=O)N[C@@H]3CN4CCC3CC4)cnn12 [Example 10, (S)-(-)-N-(1-azabicyclo[2.2.2]oct-3-yl)-7-methylpyrazolo[1,5-a]pyridine-3-carboxamide]
IC50 [1]: 0.28 nM

Cc1cccc2c(C(=O)N[C@H]3CN4CCC3CC4)cnn12 [Example 11, (R)-(+)-N-(1-azabicyclo[2.2.2]oct-3-yl)-7-methylpyrazolo[1,5-a]pyridine-3-carboxamide]
IC50 [1]: 44.9 nM

Cc1nn2ccccc2c1C(=O)O[C@H]1C[C@H]2CC[C@@H](C1)N2C [Example 15, endo-8-methyl-8-azabicyclo[3.2.1]-oct-3-yl 2-methyl-pyrazolo[1,5-a]pyridine-3-carboxylate]
IC50 [1]: 2.7 nM

Cc1cccn2ncc(C(=O)O[C@H]3C[C@H]4CC[C@@H](C3)N4C)c12 [Example 16, endo-8-methyl-8-azabicyclo[3.2.1]-oct-3-yl 4-methyl-pyrazolo[1,5-a]pyridine-3-carboxylate]
IC50 [1]: 3.5 nM

Cc1ccn2ncc(C(=O)O[C@H]3C[C@H]4CC[C@@H](C3)N4C)c2c1 [Example 17, endo-8-methyl-8-azabicyclo[3.2.1]-oct-3-yl 5-methylpyrazolo[1,5-a]pyridine-3-carboxylate]
IC50 [1]: 25.8 nM

Cc1nn2c(C)cccc2c1C(=O)NC1CN2CCC1CC2 (stereo not drawn) [Example 19]
IC50 [1]: 5.2 nM
